According to US12678423B2, “Therapeutic agent for amyotrophic lateral sclerosis and composition for treatment” (KEIO UNIVERSITY, priority 2016, dated 2026):

Columns and labels:
Type in all cases: cell-based, human
[1] = tested on: motor neurons induced to differentiate from iPS cells derived from ALS patients (FUS-ALS) having a mutation in FUS; experiment: LDH leakage ratio, FUS-ALS motor neurons
Method: The leakage amount of LDH into the medium is an indicator of cytotoxicity. For measurement of the LDH leakage ratio, a commercially available kit (model “LDH Cytotoxicity Detection Kit”, Takara Bio Inc.) was used.
Here, ropinirole was added to the medium on days 35 to 40 from the start of the differentiation induction of each iPS cell. Here, it is assumed that days 35 to 40 from the start of differentiation induction correspond to the early stage of the ALS disease.
(§1) The improvement ratio (%) of the ALS phenotype was calculated by Equation (1).
(§2) [formula] [In Equation (1), A represents a measurement value of motor neurons induced to differentiate from iPS cells derived from ALS patients in the absence of ropinirole, and B represents a measurement value of motor neurons induced to differentiate from iPS cells derived from ALS patients in the presence of ropinirole, and C represents a measurement value of motor neurons induced to differentiate from iPS cells derived from healthy subjects in the absence of ropinirole.]
(§3) Subsequently, in the same manner as above, the efficacy in cases of administering lower concentrations of ropinirole was evaluated.
(§4) Each drug was added to the medium at a final concentration of 10 μM.

[2] = tested on: motor neurons induced to differentiate from iPS cells derived from SALS patients; experiment: CV caspase 3-positive ratio, sporadic ALS model (Example III-2); conditions: final concentration 1 μM, days 35 to 40, measured on day 40, FIG. 11
Excerpt: (§5) In the same manner as in Example I-1, iPS cells derived from sporadic ALS (may be referred to below as “SALS”) patients were differentiated into motor neurons. All the iPS cells used were derived from dermal fibroblasts. Below, each differentiated motor neuron is identified by the patient number from whom the neuron was derived.
(§6) In the same manner as in Example II-1, iPS cells derived from sporadic ALS (SALS) patients were induced to differentiate into motor neurons, and then ropinirole with a final concentration of 1 μM was added to the medium. More specifically, for the period of days 35 to 40 from the start of differentiation induction, ropinirole having a final concentration of 1 μM was added to the medium. In addition, a group for which ropinirole was not added to the medium was prepared as a control. In addition, for comparison, iPS cells derived from healthy subjects were differentiated into motor neurons in the same manner as in Example I-1. No ropinirole was added to the medium of these motor neurons. As the iPS cells derived from a healthy subject, the same cells as used in Example I-1 were used.
Subsequently, on day 40 from the start of differentiation induction, the ratio of CV caspase 3-positive neurons was measured for each motor neuron in the same manner as in Example I-3.
FIG. 11 is a graph showing the measurement results of the ratio of CV caspase 3-positive neurons. […]

[3] = tested on: motor neurons induced to differentiate from iPS cells derived from ALS patients (TDP-43-ALS) having a mutation in TDP-43; experiment: Phosphorylated TDP-43 protein inclusion formation, TDP-43-ALS motor neurons
Excerpt: Therefore, on day 40 from the start of differentiation induction, each differentiation-induced motor neuron in Example I-1 was immunostained and the formation of phosphorylated TDP-43 protein inclusions was examined.
Using the differentiation-induced motor neurons in Example I-1, drugs which cause the ALS phenotype to be restored were screened from existing drug libraries with the neurite length, ectopic localization of FUS protein, stress granule formation, LDH leakage ratio, CV-caspase 3-positive ratio, phosphorylated TDP-43 protein inclusion formation, and the like as indices.
As a result of the screening, ropinirole was found as a promising therapeutic agent for ALS. Tables 5 and 6 show the improvement ratio (%) in the ALS phenotype due to adding ropinirole to the medium. Here, ropinirole was added to the medium on days 35 to 40 from the start of the differentiation induction of each iPS cell. Here, it is assumed that days 35 to 40 from the start of differentiation induction correspond to the early stage of the ALS disease.
as §1, §2, §3, §4

[4] = tested on: motor neurons induced to differentiate from iPS cells derived from SALS patients; experiment: Neurite length, sporadic ALS model (Example III-1); conditions: final concentration 1 μM, days 35 to 40, measured on day 40, FIG. 10
Excerpt: as §5, §6
Subsequently, on day 40 from the start of differentiation induction, the neurite length was measured for each motor neuron in the same manner as in Example I-2.
FIG. 10 is a graph showing measurement results of the neurite length of each motor neuron. […]

[5] = tested on: motor neurons induced to differentiate from iPS cells derived from SALS patients; experiment: LDH leakage ratio, sporadic ALS model (Example III-3); conditions: final concentration 1 μM, days 35 to 40, measured on day 40, FIG. 12
Excerpt: as §5, §6
Subsequently, on day 40 from the start of differentiation induction, the LDH leakage ratio was measured for each motor neuron in the same manner as in Example I-4.
FIG. 12 is a graph showing the measurement result of the LDH leakage ratio. […]

[6] = tested on: motor neurons induced to differentiate from iPS cells derived from SALS patients; experiment: Stress granules, sporadic ALS model (Example III-4); conditions: final concentration 1 μM, days 35 to 40, measured on day 40, FIG. 13
Excerpt: as §5
as §6, with “and” for “and then”
Subsequently, on day 40 from the start of differentiation induction, the number of stress granules was measured for each motor neuron in the same manner as in Example I-7.
FIG. 13 is a graph showing the measurement result of the number of stress granules. […]

[7] = final concentration 0.1 μM, added days 35 to 40
[8] = final concentration 1 μM, added days 35 to 40
[9] = final concentration 10 μM, added days 35 to 40

CCCN(CCC)CCc1cccc2c1CC(=O)N2 [Ropinirole, 4-(2-di-n-propylaminoethyl)-2(3H)-indole]
LDH leakage ratio improvement ratio ([1]; final concentration 0.1 nM): 10.1%
LDH leakage ratio improvement ratio ([1]; final concentration 1 nM): 31.1%
LDH leakage ratio improvement ratio ([1]; final concentration 10 nM): 39.4%
LDH leakage ratio improvement ratio [1, 7]: 33.5%
LDH leakage ratio improvement ratio [1, 8]: 48.0%
LDH leakage ratio improvement ratio [1, 9]: 47.6%
Ratio of CV caspase 3-positive neurons [2]: significantly reduced
TDP-43 inclusion formation improvement ratio ([3]; final concentration 0.1 nM): 15.3%
TDP-43 inclusion formation improvement ratio ([3]; final concentration 1 nM): 55.3%
TDP-43 inclusion formation improvement ratio ([3]; final concentration 10 nM): 60.3%
TDP-43 inclusion formation improvement ratio [3, 7]: 56.2%
TDP-43 inclusion formation improvement ratio [3, 8]: 69.2%
TDP-43 inclusion formation improvement ratio [3, 9]: 74.2%
Neurite length reduction [4]: significantly suppressed
LDH leakage ratio [5]: significantly decreased
Number of stress granules [6]: significantly decreased
